pIC50: −log10 of the molar value.
Tests used:
Rattus norvegicus [1] = test: Toxicity in overnight fasted albino Wistar rat assessed as body weight at 300 mg/kg, po administered as single dose followed by fasting for 3 hrs measured on day 13 post dose (reference value: 188 +/- 16 g); type: organism-based; settings: in vivo
Rattus norvegicus [2] = test: Toxicity in overnight fasted albino Wistar rat assessed as body weight at 300 mg/kg, po administered as single dose followed by fasting for 3 hrs measured on day 1 post dose (reference value: 162 +/- 8 g); type: organism-based; settings: in vivo
SW1573 = test: Antiproliferative activity against human SW1573 cells after 72 hrs by MTT assay; type: functional, cell-based; settings: SW1573, 72 h
MCF7 = test: Antiproliferative activity against human MCF7 cells after 72 hrs by MTT assay; type: functional, cell-based; settings: MCF7, 72 h
Rattus norvegicus [3] = test: Toxicity in overnight fasted albino Wistar rat assessed as body weight at 2000 mg/kg, po administered as single dose followed by fasting for 3 hrs measured on day 10 post dose (reference value: 182 +/- 15 g); type: organism-based; settings: in vivo
Rattus norvegicus [4] = test: Toxicity in overnight fasted albino Wistar rat assessed as body weight at 2000 mg/kg, po administered as single dose followed by fasting for 3 hrs measured on day 8 post dose (reference value: 177 +/- 8 g); type: organism-based; settings: in vivo
Rattus norvegicus [5] = test: Toxicity in overnight fasted albino Wistar rat assessed as body weight at 5000 mg/kg, po administered as single dose followed by fasting for 3 hrs measured on day 1 post dose (reference value: 162 +/- 8 g); type: organism-based; settings: in vivo
2008 [6] = test: Antiproliferative activity against resistant human 2008 cells clone 6 harboring MRP1 after 72 hrs by MTT assay; type: functional, cell-based; settings: Homo sapiens, 2008, 72 h
Rattus norvegicus [7] = test: Toxicity in overnight fasted albino Wistar rat assessed as body weight at 2000 mg/kg, po administered as single dose followed by fasting for 3 hrs measured on day 12 post dose (reference value: 186 +/- 13 g); type: organism-based; settings: in vivo
Rattus norvegicus [8] = test: Toxicity in overnight fasted albino Wistar rat assessed as body weight at 5000 mg/kg, po administered as single dose followed by fasting for 3 hrs measured on day 9 post dose (reference value: 180 +/- 12 g); type: organism-based; settings: in vivo
Rattus norvegicus [9] = test: Toxicity in overnight fasted albino Wistar rat assessed as body weight at 5000 mg/kg, po administered as single dose followed by fasting for 3 hrs measured on day 14 post dose (reference value: 191 +/- 18 g); type: organism-based; settings: in vivo
Rattus norvegicus [10] = test: Toxicity in overnight fasted albino Wistar rat assessed as body weight at 2000 mg/kg, po administered as single dose followed by fasting for 3 hrs measured on day 6 post dose (reference value: 173 +/- 12 g); type: organism-based; settings: in vivo
2008 [11] = test: Antiproliferative activity against resistant human 2008 cells clone 4 harboring MRP1 after 72 hrs by MTT assay; type: functional, cell-based; settings: Homo sapiens, 2008, 72 h
Rattus norvegicus [12] = test: Toxicity in overnight fasted albino Wistar rat assessed as body weight at 300 mg/kg, po administered as single dose followed by fasting for 3 hrs measured on day 7 post dose (reference value: 175 +/- 10 g); type: organism-based; settings: in vivo
Rattus norvegicus [13] = test: Toxicity in overnight fasted albino Wistar rat assessed as body weight at 300 mg/kg, po administered as single dose followed by fasting for 3 hrs measured on day 6 post dose (reference value: 173 +/- 12 g); type: organism-based; settings: in vivo
MDA-MB-231 = test: Antiproliferative activity against human MDA-MB-231 cells after 72 hrs by MTT assay; type: functional, cell-based; settings: MDA-MB-231, 72 h
Rattus norvegicus [14] = test: Toxicity in overnight fasted albino Wistar rat assessed as body weight at 5000 mg/kg, po administered as single dose followed by fasting for 3 hrs measured on day 3 post dose (reference value: 166 +/- 10 g); type: organism-based; settings: in vivo
Rattus norvegicus [15] = test: Toxicity in overnight fasted albino Wistar rat assessed as body weight at 5000 mg/kg, po administered as single dose followed by fasting for 3 hrs measured on day 2 post dose (reference value: 165 +/- 12 g); type: organism-based; settings: in vivo
Rattus norvegicus [16] = test: Toxicity in overnight fasted albino Wistar rat assessed as body weight at 2000 mg/kg, po administered as single dose followed by fasting for 3 hrs measured on day 4 post dose (reference value: 169 +/- 5 g); type: organism-based; settings: in vivo
Rattus norvegicus [17] = test: Toxicity in overnight fasted albino Wistar rat assessed as body weight at 2000 mg/kg, po administered as single dose followed by fasting for 3 hrs measured on day 5 post dose (reference value: 172 +/- 14 g); type: organism-based; settings: in vivo
Rattus norvegicus [18] = test: Toxicity in overnight fasted albino Wistar rat assessed as body weight at 2000 mg/kg, po administered as single dose followed by fasting for 3 hrs measured on day 13 post dose (reference value: 188 +/- 16 g); type: organism-based; settings: in vivo
A549 = test: cells; settings: Homo sapiens, A549, 72 h
Description: Antiproliferative activity against human A549 cells after 72 hrs by MTT assay

[19] = biological target: RAC-alpha serine/threonine-protein kinase (Homo sapiens, UniProt P31749); test: Inhibition of PH domain lacking AKT1 (unknown origin) using Tamara-labeled GRPRTSSFAEG peptide as substrate after 90 mins by fluorescence polarization IMAP assay
Sequence of RAC-alpha serine/threonine-protein kinase (P31749 whole entry, the tested form may be a part): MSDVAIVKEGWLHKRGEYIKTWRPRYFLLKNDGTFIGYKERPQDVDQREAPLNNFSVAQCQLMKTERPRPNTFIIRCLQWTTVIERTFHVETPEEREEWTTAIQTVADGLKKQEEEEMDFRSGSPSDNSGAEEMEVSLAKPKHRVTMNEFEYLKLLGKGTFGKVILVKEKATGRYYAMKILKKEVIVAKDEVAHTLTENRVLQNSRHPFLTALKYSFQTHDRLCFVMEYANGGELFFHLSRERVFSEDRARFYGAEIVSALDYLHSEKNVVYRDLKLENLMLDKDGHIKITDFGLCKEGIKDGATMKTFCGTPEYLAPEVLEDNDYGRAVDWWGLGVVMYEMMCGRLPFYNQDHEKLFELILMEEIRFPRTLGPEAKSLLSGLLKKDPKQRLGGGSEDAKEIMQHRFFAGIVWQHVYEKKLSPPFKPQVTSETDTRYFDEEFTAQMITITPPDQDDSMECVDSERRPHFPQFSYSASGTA

Q: With COC(=O)c1c(C)nc(NNC(=O)c2cccc3c(=O)c4ccccc4[nH]c23)nc1-c1ccc(OC)c(OC)c1 as the compound, how does the Activity (Rattus norvegicus [1]) read?
A: 204 g

Q: What about the Activity (Rattus norvegicus [2]) of the same compound?
A: 182 g

Q: What about the pIC50 (SW1573) of the same compound?
A: 5.40

Q: And the pIC50 (MCF7)?
A: 4.19

Q: And the Activity (Rattus norvegicus [3])?
A: 202 g

Q: What about the Activity (Rattus norvegicus [4]) of the same compound?
A: 197 g

Q: And the Activity (Rattus norvegicus [5])?
A: 188 g

Q: What about the pIC50 2008 [6] of the same compound?
A: 4.19

Q: And the Activity (Rattus norvegicus [7])?
A: 206 g

Q: What about the Activity (Rattus norvegicus [8]) of the same compound?
A: 212 g

Q: And the Activity (Rattus norvegicus [9])?
A: 228 g

Q: And the Activity (Rattus norvegicus [10])?
A: 194 g

Q: What about the pIC50 2008 [11] of the same compound?
A: 4.38

Q: What about the Activity (Rattus norvegicus [12]) of the same compound?
A: 191 g

Q: And the Activity (Rattus norvegicus [13])?
A: 190 g

Q: What about the pIC50 (MDA-MB-231) of the same compound?
A: 4.20

Q: What about the Activity (Rattus norvegicus [14]) of the same compound?
A: 192 g

Q: What about the Activity (Rattus norvegicus [15]) of the same compound?
A: 189 g

Q: And the Activity (Rattus norvegicus [16])?
A: 187 g

Q: What about the Activity (Rattus norvegicus [17]) of the same compound?
A: 190 g

Q: What about the Activity (Rattus norvegicus [18]) of the same compound?
A: 209 g

Q: And the pIC50 (A549)?
A: 4.54

Q: And the pIC50 [19]?
A: 6.51
